# Data as given in patent publication US20110190321A1, “[…] FOR EGFR INHIBITOR TREATMENT” (priority 2007, published 2011).
# Tests used:
# [1] = tested on: patients with advanced NSCLC following failure of at least one prior chemotherapy regimen; assay: Open-label predictive marker identification Phase II study of Tarceva monotherapy 150 mg/day; RECIST response and survival; assay type: in vivo, human; conditions: 102 patients with evaluable microarray data
# Protocol: The selection of this dose was based on pharmacokinetic parameters, as well as the safety and tolerability profile of this dose observed in Phase I, II and III trials in heavily pre-treated patients with advanced cancer. Drug levels seen in the plasma of patients with cancer receiving the 150 mg/day dose were consistently above the average plasma concentration of 500 ng/ml targeted for clinical efficacy.
# This was an open-label, predictive marker identification Phase II study. The study was conducted in approximately 26 sites in about 12 countries. 264 patients with advanced NSCLC following failure of at least one prior chemotherapy regimen were enrolled over a 12 month period. […] Dose reductions were permitted based on tolerability to drug therapy. Clinical and laboratory parameters were assessed to evaluate disease control and toxicity. Treatment continued until disease progression, unacceptable toxicity or death. The study design is depicted in FIG. 1.
# The RECIST (Uni-dimensional Tumour Measurement) criteria were used to evaluate response. These criteria can be found under the following link: […]
# A regular status check every 3 months was performed either by a patient's visit to the clinic or by telephone. All deaths were recorded. […]
# [2] = patients with cancer, 150 mg/day dose; 500 ng/ml is the average concentration targeted for clinical efficacy; cited from earlier work
# [3] = tested on: NSCLC patients for whom standard therapy for advanced disease has failed; conditions: single agent versus placebo, BR.21; cited from earlier work
smiles,measurement,setting,value
"C#Cc1cccc(Nc2ncnc3cc(OCCOC)c(OCCOC)cc23)c1 [Erlotinib, erlotinib]",Best Response PD,[1],(48.0%)
same,Best Response PR,[1],(5.9%)
same,Drug levels in plasma,[2],> 500 ng/mL
same,survival of NSCLC patients,[3],significantly prolongs and improves the survival
